36 compounds from patent publication US20250171438A1 (Agios Pharmaceuticals, Inc., priority 2022, published 2025) can be followed below.

The target of this experiment is T1, human PAH with the R408W mutation (Homo sapiens, UniProt P00439, R408W).
T1 construct: expressed in transfected cells
T1 sequence (P00439 1-452 R408W): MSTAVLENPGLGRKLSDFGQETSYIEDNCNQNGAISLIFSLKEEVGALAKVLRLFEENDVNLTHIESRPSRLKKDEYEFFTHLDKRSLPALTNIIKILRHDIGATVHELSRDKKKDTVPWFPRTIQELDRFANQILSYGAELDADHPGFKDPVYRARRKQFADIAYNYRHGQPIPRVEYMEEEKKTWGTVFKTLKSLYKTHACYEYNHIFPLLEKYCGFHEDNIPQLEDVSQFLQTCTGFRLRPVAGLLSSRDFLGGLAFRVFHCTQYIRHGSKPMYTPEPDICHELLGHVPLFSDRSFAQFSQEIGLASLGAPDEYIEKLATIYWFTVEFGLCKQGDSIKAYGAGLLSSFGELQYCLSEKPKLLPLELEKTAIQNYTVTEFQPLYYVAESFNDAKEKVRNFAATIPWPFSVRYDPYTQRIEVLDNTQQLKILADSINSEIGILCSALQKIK
The experiment is described as follows: Cell Based Phenylalanine Flux Assay. The settings on record: A375 cells expressing human R408W PAH; 24 hrs compound incubation; 13C-Tyrosine by LC-MS; average where tested multiple times; read-out: AC50.

Structures are written as SMILES.

For the compound `O=C(c1cnc(C2CC2)s1)N1CCc2[nH]cnc2[C@@H]1c1nc2ccccc2s1` [Example 1180, (R)-(4-(benzo[d]thiazol-2-yl)-6,7-dihydro-1H-imidazo[4,5-c]pyridin-5(4H)-yl)(2-cyclopropylthiazol-5-yl)methanone], the AC50 (usually the concentration giving half of the maximal activity seen) is 1000 to 5000 nM. For `O=C(c1cnc(C(F)(F)F)s1)N1CCc2[nH]cnc2[C@H]1c1nc2ccccc2s1` [Example 1181] the value was 500 to 1000 nM. Consider `O=C(c1cnc(C(F)(F)F)s1)N1CCc2[nH]cnc2[C@@H]1c1nc2ccccc2s1` [Example 1182, (R)-(4-(benzo[d]thiazol-2-yl)-6,7-dihydro-1H-imidazo[4,5-c]pyridin-5(4H)-yl)(2-(trifluoromethyl)thiazol-5-yl)methanone], for which the AC50 fell in the range of 1000 to 5000 nM. In the case of `O=C(c1cnc(NC2CC2)s1)N1CCc2[nH]cnc2[C@H]1c1nc2ccccc2s1` [Example 1183], the AC50 was under 500 nM. As for `O=C(c1cnc(NC2CC2)s1)N1CCc2[nH]cnc2[C@@H]1c1nc2ccccc2s1` [Example 1184, (R)-(4-(benzo[d]thiazol-2-yl)-6,7-dihydro-1H-imidazo[4,5-c]pyridin-5(4H)-yl)(2-(cyclopropylamino)thiazol-5-yl)methanone], the AC50 was in the range of 1000 to 5000 nM. The result for `COCc1ncc(C(=O)N2CCc3[nH]cnc3[C@H]2c2nc3ccccc3s2)s1` [Example 1185] reads 500 to 1000 nM; that for `COCc1ncc(C(=O)N2CCc3[nH]cnc3[C@@H]2c2nc3ccccc3s2)s1` [Example 1186, (R)-(4-(benzo[d]thiazol-2-yl)-6,7-dihydro-1H-imidazo[4,5-c]pyridin-5(4H)-yl)(2-(methoxymethyl)thiazol-5-yl)methanone], 1000 to 5000 nM; that for `O=C(c1cnc(C2CC2)o1)N1CCc2[nH]cnc2[C@H]1c1nc2ccccc2s1` [Example 1187], 500 to 1000 nM. For `O=C(c1cnc(C2CC2)o1)N1CCc2[nH]cnc2[C@@H]1c1nc2ccccc2s1` [Example 1188, (R)-(4-(benzo[d]thiazol-2-yl)-6,7-dihydro-1H-imidazo[4,5-c]pyridin-5(4H)-yl)(2-cyclopropyloxazol-5-yl)methanone], the concentration at half-maximal activity (AC50) fell in the range of 1000 to 5000 nM. For `O=C(c1ncc(-c2ccccc2)s1)N1CCc2[nH]cnc2[C@H]1c1nc2ccccc2s1` [Example 1189] the value was 1000 to 5000 nM; for `O=C(c1ncc(-c2ccccc2)s1)N1CCc2[nH]cnc2[C@@H]1c1nc2ccccc2s1` [Example 1190, (R)-(4-(benzo[d]thiazol-2-yl)-6,7-dihydro-1H-imidazo[4,5-c]pyridin-5(4H)-yl)(5-phenylthiazol-2-yl)methanone], over 5000 nM; for `O=C(c1cnn2cc(C3CC3)ccc12)N1CCc2[nH]cnc2[C@H]1c1nc2ccccc2s1` [Example 1191], 500 to 1000 nM.

As to `O=C(c1cnn2cc(C3CC3)ccc12)N1CCc2[nH]cnc2[C@@H]1c1nc2ccccc2s1` [Example 1192, (R)-(4-(benzo[d]thiazol-2-yl)-6,7-dihydro-1H-imidazo[4,5-c]pyridin-5(4H)-yl)(6-cyclopropylpyrazolo[1,5-a]pyridin-3-yl)methanone], the AC50 lay in the range of 1000 to 5000 nM.

Consider `O=C(c1cncs1)N1CCc2[nH]cnc2[C@H]1c1nc2cc(F)ccc2s1` [Example 1193, (S)-(4-(5-fluorobenzo[d]thiazol-2-yl)-6,7-dihydro-1H-imidazo[4,5-c]pyridin-5(4H)-yl)(thiazol-5-yl)methanone], for which the AC50 fell in the range of 1000 to 5000 nM. For `O=C(c1cncs1)N1CCc2[nH]cnc2[C@@H]1c1nc2cc(F)ccc2s1` [Example 1194, (R)-(4-(5-fluorobenzo[d]thiazol-2-yl)-6,7-dihydro-1H-imidazo[4,5-c]pyridin-5(4H)-yl)(thiazol-5-yl)methanone] the value was over 5000 nM. For `O=C(c1cnn2ccc(Cl)cc12)N1CCc2[nH]cnc2[C@H]1c1nc2c(F)cccc2s1` [Example 1195] the value was under 500 nM; for `O=C(c1cnn2ccc(Cl)cc12)N1CCc2[nH]cnc2[C@@H]1c1nc2c(F)cccc2s1` [Example 1196, (R)-(5-chloropyrazolo[1,5-a]pyridin-3-yl)(4-(4-fluorobenzo[d]thiazol-2-yl)-6,7-dihydro-1H-imidazo[4,5-c]pyridin-5(4H)-yl)methanone], 1000 to 5000 nM; for `COc1ccn2ncc(C(=O)N3CCc4[nH]cnc4[C@H]3c3nc4c(F)cccc4s3)c2c1` [Example 1197, (S)-(4-(4-fluorobenzo[d]thiazol-2-yl)-6,7-dihydro-1H-imidazo[4,5-c]pyridin-5(4H)-yl)(5-methoxypyrazolo[1,5-a]pyridin-3-yl)methanone], 500 to 1000 nM. For the compound `COc1ccn2ncc(C(=O)N3CCc4[nH]cnc4[C@@H]3c3nc4c(F)cccc4s3)c2c1` [Example 1198, (R)-(4-(4-fluorobenzo[d]thiazol-2-yl)-6,7-dihydro-1H-imidazo[4,5-c]pyridin-5(4H)-yl)(5-methoxypyrazolo[1,5-a]pyridin-3-yl)methanone], the concentration at half-maximal activity (AC50) was 1000 to 5000 nM. With `O=C(c1nccs1)N1CCc2[nH]cnc2[C@@H]1c1nc2cccc(Br)c2s1` [Example 1199, (R)-(4-(7-bromobenzo[d]thiazol-2-yl)-6,7-dihydro-1H-imidazo[4,5-c]pyridin-5(4H)-yl)(thiazol-2-yl)methanone], the AC50 was 1000 to 5000 nM. The result for `O=C(c1nccs1)N1CCc2[nH]cnc2[C@H]1c1nc2cccc(Br)c2s1` [Example 1200, (S)-(4-(7-bromobenzo[d]thiazol-2-yl)-6,7-dihydro-1H-imidazo[4,5-c]pyridin-5(4H)-yl)(thiazol-2-yl)methanone] reads 500 to 1000 nM. The result for `O=C(c1nccs1)N1CCc2[nH]cnc2[C@H]1c1nc2c(Cl)cccc2s1` [Example 1201, (S)-(4-(4-chlorobenzo[d]thiazol-2-yl)-6,7-dihydro-1H-imidazo[4,5-c]pyridin-5(4H)-yl)(thiazol-2-yl)methanone] reads 1000 to 5000 nM; that for `O=C(c1nccs1)N1CCc2[nH]cnc2[C@@H]1c1nc2c(Cl)cccc2s1` [Example 1202, (R)-(4-(4-chlorobenzo[d]thiazol-2-yl)-6,7-dihydro-1H-imidazo[4,5-c]pyridin-5(4H)-yl)(thiazol-2-yl)methanone], 1000 to 5000 nM; that for `O=C(c1cnc(-c2ccccc2)s1)N1CCc2[nH]cnc2[C@H]1c1nc2ccccc2s1` [Example 1203], 500 to 1000 nM.

In the case of `O=C(c1cnc(-c2ccccc2)s1)N1CCc2[nH]cnc2[C@@H]1c1nc2ccccc2s1` [Example 1204, (R)-(4-(benzo[d]thiazol-2-yl)-6,7-dihydro-1H-imidazo[4,5-c]pyridin-5(4H)-yl)(2-phenylthiazol-5-yl)methanone], the AC50 was 1000 to 5000 nM. The result for `O=C(c1cnc(-c2ccccn2)s1)N1CCc2[nH]cnc2[C@H]1c1nc2ccccc2s1` [Example 1205] reads under 500 nM. `O=C(c1cnc(-c2ccccn2)s1)N1CCc2[nH]cnc2[C@@H]1c1nc2ccccc2s1` [Example 1206, (R)-(4-(benzo[d]thiazol-2-yl)-6,7-dihydro-1H-imidazo[4,5-c]pyridin-5(4H)-yl)(2-(pyridin-2-yl)thiazol-5-yl)methanone]: the AC50 lay within 1000 to 5000 nM. The result for `O=C(c1cnc(-c2ccccc2)o1)N1CCc2[nH]cnc2[C@H]1c1nc2ccccc2s1` [Example 1207] reads under 500 nM; that for `O=C(c1cnc(-c2ccccc2)o1)N1CCc2[nH]cnc2[C@@H]1c1nc2ccccc2s1` [Example 1208, (R)-(4-(benzo[d]thiazol-2-yl)-6,7-dihydro-1H-imidazo[4,5-c]pyridin-5(4H)-yl)(2-phenyloxazol-5-yl)methanone], 1000 to 5000 nM.

In the case of `O=C(c1cnn2cc(-c3ccccc3)ccc12)N1CCc2[nH]cnc2[C@H]1c1nc2ccccc2s1` [Example 1209], the AC50 is 1000 to 5000 nM. For `O=C(c1cnn2cc(-c3ccccc3)ccc12)N1CCc2[nH]cnc2[C@@H]1c1nc2ccccc2s1` [Example 1210, (R)-(4-(benzo[d]thiazol-2-yl)-6,7-dihydro-1H-imidazo[4,5-c]pyridin-5(4H)-yl)(6-phenylpyrazolo[1,5-a]pyridin-3-yl)methanone] the value was over 5000 nM; for `O=C(c1cnn2cc(-c3ccccn3)ccc12)N1CCc2[nH]cnc2[C@H]1c1nc2ccccc2s1` [Example 1211], 500 to 1000 nM; for `O=C(c1cnn2cc(-c3ccccn3)ccc12)N1CCc2[nH]cnc2[C@@H]1c1nc2ccccc2s1` [Example 1212, (R)-(4-(benzo[d]thiazol-2-yl)-6,7-dihydro-1H-imidazo[4,5-c]pyridin-5(4H)-yl)(6-(pyridin-2-yl)pyrazolo[1,5-a]pyridin-3-yl)methanone], over 5000 nM. For `Cn1cc(-c2ccc3c(C(=O)N4CCc5[nH]cnc5[C@H]4c4nc5ccccc5s4)cnn3c2)cn1` [Example 1213] the value was under 500 nM; for `Cn1cc(-c2ccc3c(C(=O)N4CCc5[nH]cnc5[C@@H]4c4nc5ccccc5s4)cnn3c2)cn1` [Example 1214, (R)-(4-(benzo[d]thiazol-2-yl)-6,7-dihydro-1H-imidazo[4,5-c]pyridin-5(4H)-yl)(6-(1-methyl-1H-pyrazol-4-yl)pyrazolo[1,5-a]pyridin-3-yl)methanone], 1000 to 5000 nM. For `O=C(c1cnn2cc(F)ccc12)N1CCc2[nH]cnc2[C@H]1c1nc2c(F)cccc2s1` [Example 1215, (S)-(4-(4-fluorobenzo[d]thiazol-2-yl)-6,7-dihydro-1H-imidazo[4,5-c]pyridin-5(4H)-yl)(6-fluoropyrazolo[1,5-a]pyridin-3-yl)methanone] the value was under 500 nM.
